“Also recorded” adds a separate entry of the source.
Experiments:
B16 Melanocarcinoma [1] = experiment: Experiment 19: B16 i.p., acid diluted with saline, female; format: in vivo, Mouse B6 D2 F1
Text: (§1) Tumor: B16 Melanocarcinoma
(§2) Inoculum Site: Intraperitoneal
(§3) Tissue: Homogenate (or brei), tumor
(§4) Vehicle: Acid diluted with saline
Treatment schedule: (relative to tumor inoculation day): daily on days 1-9
(§5) Day of evaluation (relative to tumor inoculation day): 60
(§6) Parameter: Median survival time (MST) in days
(§7) NCI minimal activity criteria: Percent T/C≥125
(§8) Percent T/C: Ratio of test (T) evaluation to control (C) evaluation expressed as a percentage

[2] = Single dose (X1) mouse range-finding and lethality study; format: in vivo, CD2 F1 mice; conditions: mouse, in vivo, iv
Experimental: (§9) A preclinical toxicology study of benzisoquinolinedione (NSC-308847) was done at Springborn Institute for Bioresearch, Inc. using CD2 F1 mice, Fischer 344 rats and beagle dogs. Animals were injected intravenously on a single dose (X1) or five daily dose (X5) regimen. Bulk drug was titrated with 0.5N HCl to form a salt solution of benzisoquinolinedione at a pH of 5.0-6.5. Sterile 0.9% saline was used for diluting the dosing solutions and was used for the vehicle control animals.
(§10) All mortality and toxic signs occurred on day 1 in both the X1 range-finding and lethality studies.
(§11) Defined Doses for the Single Dose Mouse Lethality

CD2 F1 mice = experiment: as above; format: in vivo
Experimental: as §9, §10, §11

CD8F1 mammary tumor = experiment: NCI screen, CD8F1 mammary tumor, subcutaneous (summary); format: in vivo, Mouse; conditions: for Antitumor activity in words: CD8F1 mammary
Text: (§12) The activity of the compound has been evaluated by experiments carried out under the auspices of the Division of Cancer Treatment, National Cancer Institute, employing techniques considered to be reliable indicators of chemotherapeutic utility in the treatment of forms of cancer in human patients. The details of the methodology employed in the reported experiments may be determined with reference to established NCI screening methods. In the experiments conducted by the NCI, evaluation of activity is made on the basis of appropriate parameters, such as median survival time (MST) or change in average tumor diameter (CATD)in ocular micrometer units (OMU).

canine whole blood = experiment: Hemolytic potential testing, canine whole blood; conditions: 50 mg/ml
Experimental: Therefore, a concentration of 12.5 mg/ml was used in the dog studies.

B16 Melanocarcinoma [3] = experiment: Experiment 20: B16 i.p., acid diluted with saline, female; format: in vivo, Mouse B6 C3 F1
Text: as §1, §2, §3, §4
(§13) Treatment schedule (relative to tumor inoculation day): daily on days 1-9
as §5, §6, §7, §8

Lewis lung carcinoma = experiment: NCI screen, Lewis lung carcinoma, intravenous (summary); format: in vivo, Mouse; conditions: for Antitumor activity in words: Lewis lung carcinoma
Text: as §12

B16 Melanocarcinoma [4] = experiment: Experiment 16: B16 i.p., saline with Tween-80, male; format: in vivo, Mouse B6 C3 F1
Text: as §1, §2, §3
(§14) Vehicle: Saline with Tween-80
as §13, §5, §6, §7, §8

L-1210 Lymphoid leukemia [5] = experiment: Experiment 8: L-1210 s.c., 10^6 cells, acid diluted with saline, female; format: in vivo, Mouse CD2 F (CDF1)
Text: (§15) Tumor: L-1210 Lymphoid leukemia
Inoculum Site: Subcutaneous
as §4
Treatment schedule (relative to tumor inoculation day) daily on days 1-9
(§16) Day of evaluation (relative to tumor inoculation day): 30
as §6, §7, §8

[6] = system: P 388 Lymphocytic leukemia; experiment: Experiment 10: P388 i.p., 10^6 cells, saline with Tween-80, male; format: in vivo, Mouse CD2F1 (CDF1)
Text: Tumor: P 388 Lymphocytic leukemia
as §2, §14, §13, §16, §6
NCI minimal activity criteria: Percent T/C≥120
as §8

L-1210 Lymphoid leukemia [7] = experiment: Experiment 6: L-1210 i.p., 10^4 cells, saline with Tween-80, male; format: in vivo, Mouse CD2 F1 (CDF1)
Text: Host: Mouse CD2 F1 (CDF1)
as §15, §2, §14, §13, §16, §6, §7, §8

CN(C)CCN1C(=O)c2cccc3cc(N)cc(c23)C1=O [Example 9, 1H-Benz[de]isoquinoline-1,3(2H)-dione, 5-amino-2-[2-(dimethylamino)ethyl]]
Median survival time (MST) (B16 Melanocarcinoma [1]; 1.00 mg/kg i.p.): 19.8 days | Percent T/C (B16 Melanocarcinoma [1]; 1.00 mg/kg i.p.): 99% | Median survival time (MST) (B16 Melanocarcinoma [1]; 2.00 mg/kg i.p.): 21.9 days | Percent T/C (B16 Melanocarcinoma [1]; 2.00 mg/kg i.p.): 110% | Median survival time (MST) (B16 Melanocarcinoma [1]; 4.00 mg/kg i.p.): 22.8 days | Percent T/C (B16 Melanocarcinoma [1]; 4.00 mg/kg i.p.): 114% | Median survival time (MST) (B16 Melanocarcinoma [1]; 8.00 mg/kg i.p.): 24.3 days | Percent T/C (B16 Melanocarcinoma [1]; 8.00 mg/kg i.p.): 122% | Median survival time (MST) (B16 Melanocarcinoma [1]; 16.00 mg/kg i.p.): 31.0 days | Percent T/C (B16 Melanocarcinoma [1]; 16.00 mg/kg i.p.): 155% | Median survival time (MST) (B16 Melanocarcinoma [1]; 32.00 mg/kg i.p.): 6.8 days | LD50 ([2]; combined sexes): 69.1 mg/kg | LD50 ([2]; female): 71.4 mg/kg | LD50 ([2]; male): 67.1 mg/kg | body weight, mice (CD2 F1 mice; X1): Only slight weight loss | time of deaths, mice (CD2 F1 mice; X1): within a few minutes after dosing | toxic signs, mice (CD2 F1 mice; X1, listed as benzisoquinolinedione): labored breathing, struggling and exophthalmus; also recorded: loss of locomotor ability, decreased activity and rough hair coats; also recorded: All surviving animals were normal within a few hours | LD50 (CD2 F1 mice; combined sexes): 207.3 mg/m^2 | Slope (lethality) (CD2 F1 mice; combined sexes): 23.1 | LD10 (CD2 F1 mice; female): 62.2 mg/kg | LD50 (CD2 F1 mice; female): 214.2 mg/m^2 | Slope (lethality) (CD2 F1 mice; female): 21.2 | LD50 (CD2 F1 mice; male): 201.3 mg/m^2 | Slope (lethality) (CD2 F1 mice; male): 26.0 | Antitumor activity in words (CD8F1 mammary tumor; listed as BIDA): not active | Antitumor activity in words (CD8F1 mammary tumor; listed as the compound): not observed to be effective | Table II evaluation (CD8F1 mammary tumor; change in median tumor weight, 15 tests, full wrapped cell: Activity not confirmed): Activity not | hemolysis (canine whole blood; 1:1 drug to blood): hemolysis | hemolysis (canine whole blood; 1:2): Slight hemolysis | hemolysis (canine whole blood; 1:4): none | Median survival time (MST) (B16 Melanocarcinoma [3]; 0.00 mg/kg [sic] i.p.): 18.3 days | Percent T/C (B16 Melanocarcinoma [3]; 0.00 mg/kg [sic] i.p.): 97% | Median survival time (MST) (B16 Melanocarcinoma [3]; 2.00 mg/kg i.p.): 18.3 days | Percent T/C (B16 Melanocarcinoma [3]; 2.00 mg/kg i.p.): 97% | Median survival time (MST) (B16 Melanocarcinoma [3]; 4.00 mg/kg i.p.): 20.0 days | Percent T/C (B16 Melanocarcinoma [3]; 4.00 mg/kg i.p.): 106% | Median survival time (MST) (B16 Melanocarcinoma [3]; 8.00 mg/kg i.p.): 20.9 days | Percent T/C (B16 Melanocarcinoma [3]; 8.00 mg/kg i.p.): 111% | Median survival time (MST) (B16 Melanocarcinoma [3]; 16.00 mg/kg i.p.): 20.8 days | Percent T/C (B16 Melanocarcinoma [3]; 16.00 mg/kg i.p.): 110% | Median survival time (MST) (B16 Melanocarcinoma [3]; 32.00 mg/kg i.p.): 6.7 days | Antitumor activity in words (Lewis lung carcinoma; listed as BIDA): not active | Antitumor activity in words (Lewis lung carcinoma; listed as the compound): not observed to be effective | Table II evaluation (Lewis lung carcinoma; median survival time, 12 tests, full wrapped cell: Activity not confirmed): Activity not | Median survival time (MST) (B16 Melanocarcinoma [4]; 1.00 mg/kg i.p.): 17.6 days | Percent T/C (B16 Melanocarcinoma [4]; 1.00 mg/kg i.p.): 102% | Median survival time (MST) (B16 Melanocarcinoma [4]; 2.00 mg/kg i.p.): 17.3 days | Percent T/C (B16 Melanocarcinoma [4]; 2.00 mg/kg i.p.): 101% | Median survival time (MST) (B16 Melanocarcinoma [4]; 4.00 mg/kg i.p.): 19.3 days | Percent T/C (B16 Melanocarcinoma [4]; 4.00 mg/kg i.p.): 112% | Median survival time (MST) (B16 Melanocarcinoma [4]; 8.00 mg/kg i.p.): 20.3 days | Percent T/C (B16 Melanocarcinoma [4]; 8.00 mg/kg i.p.): 118% | Median survival time (MST) (B16 Melanocarcinoma [4]; 16.00 mg/kg i.p.): 35.0 days | Percent T/C (B16 Melanocarcinoma [4]; 16.00 mg/kg i.p.): 87% | Median survival time (MST) (B16 Melanocarcinoma [4]; 32.00 mg/kg i.p.): 8.3 days | Median survival time (MST) (L-1210 Lymphoid leukemia [5]; 5.00 mg/kg i.p.): 9.0 days | Percent T/C (L-1210 Lymphoid leukemia [5]; 5.00 mg/kg i.p.): 105% | Median survival time (MST) (L-1210 Lymphoid leukemia [5]; 7.00 mg/kg i.p.): 9.8 days | Percent T/C (L-1210 Lymphoid leukemia [5]; 7.00 mg/kg i.p.): 110% | Median survival time (MST) (L-1210 Lymphoid leukemia [5]; 10.00 mg/kg i.p.): 10.7 days | Percent T/C (L-1210 Lymphoid leukemia [5]; 10.00 mg/kg i.p.): 125% | Median survival time (MST) (L-1210 Lymphoid leukemia [5]; 16.00 mg/kg i.p.): 12.3 days | Percent T/C (L-1210 Lymphoid leukemia [5]; 16.00 mg/kg i.p.): 144% | Median survival time (MST) (L-1210 Lymphoid leukemia [5]; 24.00 mg/kg i.p.): 31.3 days | Percent T/C (L-1210 Lymphoid leukemia [5]; 24.00 mg/kg i.p.): 132% | Median survival time (MST) ([6]; 2.00 mg/kg i.p.): 13.3 days | Percent T/C ([6]; 2.00 mg/kg i.p.): 135% | Median survival time (MST) ([6]; 4.00 mg/kg i.p.): 14.0 days | Percent T/C ([6]; 4.00 mg/kg i.p.): 142% | Median survival time (MST) ([6]; 8.00 mg/kg i.p.): 17.3 days | Percent T/C ([6]; 8.00 mg/kg i.p.): 176% | Median survival time (MST) ([6]; 16.00 mg/kg i.p.): 13.0 days | Percent T/C ([6]; 16.00 mg/kg i.p.): 132% | Median survival time (MST) ([6]; 32.00 mg/kg i.p.): 6.1 days | Median survival time (MST) (L-1210 Lymphoid leukemia [7]; 2.00 mg/kg i.p.): 9.7 days | Percent T/C (L-1210 Lymphoid leukemia [7]; 2.00 mg/kg i.p.): 105% | Median survival time (MST) (L-1210 Lymphoid leukemia [7]; 4.00 mg/kg i.p.): 10.7 days | Percent T/C (L-1210 Lymphoid leukemia [7]; 4.00 mg/kg i.p.): 116% | Median survival time (MST) (L-1210 Lymphoid leukemia [7]; 8.00 mg/kg i.p.): 12.0 days | Percent T/C (L-1210 Lymphoid leukemia [7]; 8.00 mg/kg i.p.): 130% | Median survival time (MST) (L-1210 Lymphoid leukemia [7]; 16.00 mg/kg i.p.): 19.0 days | Percent T/C (L-1210 Lymphoid leukemia [7]; 16.00 mg/kg i.p.): 200% | Median survival time (MST) (L-1210 Lymphoid leukemia [7]; 32.00 mg/kg i.p.): 8.3 days | Percent T/C (L-1210 Lymphoid leukemia [7]; 32.00 mg/kg i.p.): 90%
